Tested on: fungi and bacteria on leaf explants
Test: Leaf disinfection of cacao leaf explants (hypochlorite under vacuum)
Design: species or system Theobroma cacao; cacao leaf disinfection: dose or concentration left out as unconfirmed
Method: The leaves were cleaned with soap and rinsed with distilled sterile water for three times. Afterwards, the leaves were cut in pieces in sizes of 2 cm^2, disinfected by immersion in alcohol 70% for five minutes, and rinsed three times with ultrapure sterile water. Then, the leaf explants were immersed in 1% calcium hypochlorite or 20% sodium hypochlorite for 50-60 minutes in vacuum condition (70 k-pascal) and rinsed 3-5 times with ultrapure sterile water.

## [Ca+2].[O-]Cl.[O-]Cl [calcium hypochlorite]
High concentration of calcium hypochlorite
  leaf death after disinfection: high percentage of leaf death
Low concentration of calcium hypochlorite for 40 minutes, with vacuum
  cacao leaf disinfection: best treatment for cacao leaf disinfection
